Results reported in PubChem BioAssay AID1963856 (Molecular Pharmacology Branch, DTP, NCI, 2024).
“And” between values parts separate entries of the source, which are not always exact repeats. Equal values may be shown once.

Tested on: LG0567-F671-PDC KRAS tumor spheroid viability
Assay: Anticancer human tumor LG0567-F671-PDC patient-derived lung adenocarcinoma cell line growth inhibition [KRAS2]
Settings: spheroids with HUVEC and MSC; for viability, T/C: stronger effect = lower value
In short: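 KRAS-mutant tumor cells were grown as spheroids with HUVEC endothelial cells and human MSCs as stroma. Targeted agents were tested alone and with KRAS pathway inhibitors. Doses started at or near clinical Cmax, or 10 microM, descending half-log.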

[1] = curve of first compound, second compound 0.1 µM
[2] = curve of first compound, second compound 0.316 µM
[3] = curve of first compound, second compound 1 µM
[4] = curve of first compound, second compound 3.16 µM
[5] = curve of first compound, second compound 10 µM
[6] = second compound 0.1 µM, first compound 0.000316 µM
[7] = second compound 0.1 µM, first compound 0.001 µM
[8] = second compound 0.1 µM, first compound 0.00316 µM
[9] = second compound 0.1 µM, first compound 0.01 µM
[10] = second compound 0.1 µM, first compound 0.0316 µM
[11] = second compound 0.1 µM, first compound 0.1 µM
[12] = second compound 0.316 µM, first compound 0.000316 µM
[13] = second compound 0.316 µM, first compound 0.001 µM
[14] = second compound 0.316 µM, first compound 0.00316 µM
[15] = second compound 0.316 µM, first compound 0.01 µM
[16] = second compound 0.316 µM, first compound 0.0316 µM
[17] = second compound 0.316 µM, first compound 0.1 µM
[18] = second compound 1 µM, first compound 0.000316 µM
[19] = second compound 1 µM, first compound 0.001 µM
[20] = second compound 1 µM, first compound 0.00316 µM
[21] = second compound 1 µM, first compound 0.01 µM
[22] = second compound 1 µM, first compound 0.0316 µM
[23] = second compound 1 µM, first compound 0.1 µM
[24] = second compound 3.16 µM, first compound 0.000316 µM
[25] = second compound 3.16 µM, first compound 0.001 µM
[26] = second compound 3.16 µM, first compound 0.00316 µM
[27] = second compound 3.16 µM, first compound 0.01 µM
[28] = second compound 3.16 µM, first compound 0.0316 µM
[29] = second compound 3.16 µM, first compound 0.1 µM
[30] = second compound 10 µM, first compound 0.000316 µM
[31] = second compound 10 µM, first compound 0.001 µM
[32] = second compound 10 µM, first compound 0.00316 µM
[33] = second compound 10 µM, first compound 0.01 µM
[34] = second compound 10 µM, first compound 0.0316 µM
[35] = second compound 10 µM, first compound 0.1 µM
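Note: drug exposure lasted seven days after spheroids formed for three days.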
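Throughout, for viability, T/C: 100% = DMSO vehicle control viability.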

Compound: COc1cc2nc(C)nc(NC(C)c3cc(N)cc(C(F)(F)F)c3)c2cc1OC1CCOC1 (centres undefined)
- viability, T/C (compound 0.316 µM): 71.1% [middle of 17 runs]
- IC50 (compound alone, run of 07/12/2021): > 10000 nM and 2620 nM and 2850 nM
- IC50 (compound alone, run of 07/19/2021): > 10000 nM
- IC50 (compound alone, run of 07/26/2021): > 10000 nM

Compound: CC(C)n1nc(-c2ccc3oc(N)nc3c2)c2c(N)ncnc21 + CNCc1ccccc1-c1csc(C(C)Nc2nc(C)nc3cc(OC)c(OC)cc23)c1
- IC50 [1]: 58.7 nM
- IC50 [2]: 10.7 nM
- IC50 [3]: 5.7 nM
- IC50 [4]: < 0.316 nM
- IC50 [5]: < 0.316 nM
- viability, T/C [6]: 72.7%
- viability, T/C [7]: 76.2%
- viability, T/C [8]: 65.5%
- viability, T/C [9]: 58.6%
- viability, T/C [10]: 53.8%
- viability, T/C [11]: 47.3%
- viability, T/C [12]: 70.3%
- viability, T/C [13]: 65.5%
- viability, T/C [14]: 59%
- viability, T/C [15]: 49%
- viability, T/C [16]: 42.6%
- viability, T/C [17]: 37.4%
- viability, T/C [18]: 70.8%
- viability, T/C [19]: 73.6%
- viability, T/C [20]: 52.5%
- viability, T/C [21]: 44.5%
- viability, T/C [22]: 32.1%
- viability, T/C [23]: 23.2%
- viability, T/C [24]: 0.52%
- viability, T/C [25]: 1.53%
- viability, T/C [26]: 2.23%
- viability, T/C [27]: 0.27%
- viability, T/C [28]: 10.3%
- viability, T/C [29]: 6%
- viability, T/C [30]: 1.29%
- viability, T/C [31]: 0.51%
- viability, T/C [32]: 0.14%
- viability, T/C [33]: 1.07%
- viability, T/C [34]: 10.9%
- viability, T/C [35]: 0.33%

Compound: Cn1ncnc1[C@H]1c2n[nH]c(=O)c3cc(F)cc(c23)N[C@@H]1c1ccc(F)cc1 + COc1cc2nc(C)nc(NC(C)c3cc(N)cc(C(F)(F)F)c3)c2cc1OC1CCOC1
- IC50 [1]: > 100 nM
- IC50 [2]: > 100 nM
- IC50 [3]: > 100 nM
- IC50 [4]: > 100 nM
- IC50 [5]: > 100 nM
- viability, T/C [6]: 94.8%
- viability, T/C [7]: 78.3%
- viability, T/C [8]: 74.8%
- viability, T/C [9]: 83.8%
- viability, T/C [10]: 84.7%
- viability, T/C [11]: 82.8%
- viability, T/C [12]: 77.6%
- viability, T/C [13]: 74.9%
- viability, T/C [14]: 61.1%
- viability, T/C [15]: 66.3%
- viability, T/C [16]: 81.4%
- viability, T/C [17]: 75.9%
- viability, T/C [18]: 75.6%
- viability, T/C [19]: 63.6%
- viability, T/C [20]: 58.6%
- viability, T/C [21]: 49.1%
- viability, T/C [22]: 53.7%
- viability, T/C [23]: 53.8%
- viability, T/C [24]: 69.1%
- viability, T/C [25]: 70%
- viability, T/C [26]: 67.3%
- viability, T/C [27]: 56.9%
- viability, T/C [28]: 53.6%
- viability, T/C [29]: 51.9%
- viability, T/C [30]: 61.3%
- viability, T/C [31]: 62.9%
- viability, T/C [32]: 71.2%
- viability, T/C [33]: 54.4%
- viability, T/C [34]: 51.7%
- viability, T/C [35]: 53.6%

Compound: CC(=O)Nc1cccc(-n2c(=O)n(C3CC3)c(=O)c3c(Nc4ccc(I)cc4F)n(C)c(=O)c(C)c32)c1 + COc1cc2nc(C)nc(NC(C)c3cc(N)cc(C(F)(F)F)c3)c2cc1OC1CCOC1
- IC50 [1]: 1 nM
- IC50 [2]: 0.299 nM
- IC50 [3]: < 0.1 nM
- IC50 [4]: < 0.1 nM
- IC50 [5]: < 0.1 nM
- viability, T/C (second compound 0.1 µM, first compound 0.0001 µM): 69.8%
- viability, T/C [6]: 52.6%
- viability, T/C [7]: 53%
- viability, T/C [8]: 39.9%
- viability, T/C [9]: 25.9%
- viability, T/C [10]: 8.34%
- viability, T/C (second compound 0.316 µM, first compound 0.0001 µM): 60.9%
- viability, T/C [12]: 48.7%
- viability, T/C [13]: 36.3%
- viability, T/C [14]: 33.2%
- viability, T/C [15]: 22.7%
- viability, T/C [16]: 11.8%
- viability, T/C (second compound 1 µM, first compound 0.0001 µM): 45.4%
- viability, T/C [18]: 43%
- viability, T/C [19]: 39.7%
- viability, T/C [20]: 31.2%
- viability, T/C [21]: 26.8%
- viability, T/C [22]: 7.58%
- viability, T/C (second compound 3.16 µM, first compound 0.0001 µM): 48.6%
- viability, T/C [24]: 43.7%
- viability, T/C [25]: 34%
- viability, T/C [26]: 19.2%
- viability, T/C [27]: 17.1%
- viability, T/C [28]: 6.02%
- viability, T/C (second compound 10 µM, first compound 0.0001 µM): 41.3%
- viability, T/C [30]: 36.6%
- viability, T/C [31]: 27.2%
- viability, T/C [32]: 13.4%
- viability, T/C [33]: 5.95%
- viability, T/C [34]: 1.33%

Compound: COc1cc2nccc(Oc3ccc(NC(=O)C4(C(=O)Nc5ccc(F)cc5)CC4)cc3)c2cc1OC + CNCc1ccccc1-c1csc(C(C)Nc2nc(C)nc3cc(OC)c(OC)cc23)c1
- IC50 [1]: > 10000 nM
- IC50 [2]: 541 nM
- IC50 [3]: 197 nM
- IC50 [4]: < 31.6 nM
- IC50 [5]: < 31.6 nM
- viability, T/C [10]: 78.2%
- viability, T/C [11]: 66.5%
- viability, T/C (second compound 0.1 µM, first compound 0.316 µM): 56.8%
- viability, T/C (second compound 0.1 µM, first compound 1 µM): 49.6%
- viability, T/C (second compound 0.1 µM, first compound 3.16 µM): 33.1%
- viability, T/C (second compound 0.1 µM, first compound 10 µM): 88.5%
- viability, T/C [16]: 65.8%
- viability, T/C [17]: 58.8%
- viability, T/C (second compound 0.316 µM, first compound 0.316 µM): 51.8%
- viability, T/C (second compound 0.316 µM, first compound 1 µM): 39.6%
- viability, T/C (second compound 0.316 µM, first compound 3.16 µM): 27.2%
- viability, T/C (second compound 0.316 µM, first compound 10 µM): 75.7%
- viability, T/C [22]: 55%
- viability, T/C [23]: 58.2%
- viability, T/C (second compound 1 µM, first compound 0.316 µM): 45.4%
- viability, T/C (second compound 1 µM, first compound 1 µM): 27.8%
- viability, T/C (second compound 1 µM, first compound 3.16 µM): 23.1%
- viability, T/C (second compound 1 µM, first compound 10 µM): 38%
- viability, T/C [28]: 0.31%
- viability, T/C [29]: 0.25%
- viability, T/C (second compound 3.16 µM, first compound 0.316 µM): 0.87%
- viability, T/C (second compound 3.16 µM, first compound 1 µM): 0.11%
- viability, T/C (second compound 3.16 µM, first compound 3.16 µM): 0.21%
- viability, T/C (second compound 3.16 µM, first compound 10 µM): 0.7%
- viability, T/C [34]: 0.63%
- viability, T/C [35]: 0.38%
- viability, T/C (second compound 10 µM, first compound 0.316 µM): 0.97%
- viability, T/C (second compound 10 µM, first compound 1 µM): 0.33%
- viability, T/C (second compound 10 µM, first compound 3.16 µM): 2.44%
- viability, T/C (second compound 10 µM, first compound 10 µM): 0.91%
